Calls of active or inactive are those of the source. No cut-off for these calls is given here.
Legend:
[1] = molecular target: Neurotensin receptor type 1 (Rattus norvegicus, UniProt P20789); assay: Inhibitory concentration required for the displacement of [3H]NT from neurotensin receptor in rat
[2] = system: N1E-115; assay: Evaluated for the cyclic [3H]GMP formation in murine N1E-115 neuroblastoma cells in absence of neurotensin at conc. of 32 uM; NS - No significant activity; assay type: functional, cell-based; conditions: Mus musculus
[3] = Compound was evaluated for its ability to displace [3H]NT from the neurotensin receptor of bovine brain
[4] = system: Rattus norvegicus; assay: Compound was tested for the inhibition of NT-induced hyperlocomotion at a dose of 120 mg/kg (ip); SI - Significant inhibition; assay type: functional, organism-based; set-up: dose 120 mg/kg
[5] = molecular target: Neurotensin receptor type 1 (Mus musculus, UniProt O88319); assay: Inhibitory concentration required for the displacement of [3H]NT from neurotensin receptor in mouse; value ranges from 4-6 uM
[6] = system: Rattus norvegicus; assay: Compound was tested for the inhibition of NT-induced hyperlocomotion at a dose of 40 mg/kg (ip); NS - No significant inhibition; assay type: functional, organism-based; set-up: dose 40 mg/kg
[7] = molecular target: Neurotensin receptor (Homo sapiens) (UniProt O95665+P30989); assay: Inhibitory concentration required for the displacement of [3H]-NT from neurotensin receptor on human frontal cortex at conc. of 100 uM; NA - No activity; assay type: tissue-based
[8] = system: N1E-115; assay: Evaluated for its antagonistic activity against the NT-stimulated cyclic [3H]GMP formation in murine N1E-115 neuroblastoma cells; assay type: functional, cell-based, Mus musculus
[9] = system: Rattus norvegicus; assay: Compound was tested for the inhibition of NT-induced hyperlocomotion at a dose of 80 mg/kg (ip); SI - Significant inhibition; assay type: functional, organism-based; set-up: dose 80 mg/kg

Sequence of Neurotensin receptor (Homo sapiens) (O95665 whole entry, looked up): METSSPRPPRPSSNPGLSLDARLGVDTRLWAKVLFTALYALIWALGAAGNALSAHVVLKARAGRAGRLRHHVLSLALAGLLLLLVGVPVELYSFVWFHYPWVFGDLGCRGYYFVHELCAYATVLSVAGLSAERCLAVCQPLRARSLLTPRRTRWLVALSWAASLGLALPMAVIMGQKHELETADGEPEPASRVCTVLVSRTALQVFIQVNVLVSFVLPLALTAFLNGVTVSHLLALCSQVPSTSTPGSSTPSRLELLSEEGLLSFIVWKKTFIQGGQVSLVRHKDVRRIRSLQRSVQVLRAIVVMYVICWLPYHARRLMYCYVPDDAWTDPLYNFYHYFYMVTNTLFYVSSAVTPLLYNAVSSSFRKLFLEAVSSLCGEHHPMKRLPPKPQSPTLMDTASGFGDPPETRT
Sequence of Neurotensin receptor (Homo sapiens) (P30989 whole entry, looked up): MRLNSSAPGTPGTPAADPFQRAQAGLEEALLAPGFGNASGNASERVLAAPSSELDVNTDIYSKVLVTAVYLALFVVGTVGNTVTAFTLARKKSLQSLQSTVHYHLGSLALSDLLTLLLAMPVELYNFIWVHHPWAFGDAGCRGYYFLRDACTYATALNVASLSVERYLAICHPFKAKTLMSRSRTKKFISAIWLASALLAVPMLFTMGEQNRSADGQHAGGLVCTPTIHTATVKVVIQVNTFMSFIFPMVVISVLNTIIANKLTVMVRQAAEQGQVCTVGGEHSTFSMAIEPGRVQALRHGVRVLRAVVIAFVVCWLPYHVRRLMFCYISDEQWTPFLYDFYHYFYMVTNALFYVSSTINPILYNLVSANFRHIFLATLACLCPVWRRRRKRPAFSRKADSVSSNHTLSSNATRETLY
Sequence of Neurotensin receptor type 1 (Rattus norvegicus, UniProt P20789) (P20789 whole entry): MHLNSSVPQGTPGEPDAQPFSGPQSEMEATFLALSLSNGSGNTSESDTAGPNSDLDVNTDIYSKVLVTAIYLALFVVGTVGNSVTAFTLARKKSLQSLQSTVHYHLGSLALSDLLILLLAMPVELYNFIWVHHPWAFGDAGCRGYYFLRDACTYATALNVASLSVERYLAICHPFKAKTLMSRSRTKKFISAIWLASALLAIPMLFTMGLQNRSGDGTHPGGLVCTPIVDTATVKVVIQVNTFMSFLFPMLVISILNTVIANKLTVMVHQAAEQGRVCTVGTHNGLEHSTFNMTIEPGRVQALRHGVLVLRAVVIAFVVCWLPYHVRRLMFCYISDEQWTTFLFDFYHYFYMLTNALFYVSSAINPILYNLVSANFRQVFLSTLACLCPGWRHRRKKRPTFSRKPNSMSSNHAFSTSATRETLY
Sequence of Neurotensin receptor type 1 (Mus musculus, UniProt O88319) (O88319 whole entry): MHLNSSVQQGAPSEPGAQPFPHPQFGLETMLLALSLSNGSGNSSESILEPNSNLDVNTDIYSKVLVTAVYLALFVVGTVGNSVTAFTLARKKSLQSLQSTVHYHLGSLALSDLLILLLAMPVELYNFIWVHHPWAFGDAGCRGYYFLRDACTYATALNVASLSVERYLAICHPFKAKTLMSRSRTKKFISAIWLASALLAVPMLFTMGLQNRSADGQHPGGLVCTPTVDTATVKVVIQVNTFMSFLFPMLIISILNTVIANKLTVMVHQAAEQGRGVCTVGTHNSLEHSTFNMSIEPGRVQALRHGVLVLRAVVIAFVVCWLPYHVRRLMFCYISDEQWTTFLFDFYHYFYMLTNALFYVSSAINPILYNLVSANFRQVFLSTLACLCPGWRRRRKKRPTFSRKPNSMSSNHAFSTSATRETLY

IC50 [1]: 49 µM
IC50 [3]: 5.5 µM
IC50 [5]: 6 µM
inhibition [7]: inactive
Compound: Cc1ccc(S(=O)(=O)NCCNC2(c3ccccc3)OC(=O)c3ccccc32)cc1 (centres undefined)
Activity [2]: inactive
inhibition [4]: Active
inhibition [6]: inactive
Ki [8]: 4.4 µM
inhibition [9]: Active
